In patent publication EP0396024A2, “Esters, medicaments containing them and preparation of these esters and medicaments” (Grünenthal GmbH, priority 1989, dated 1990):

Experiments:
Hunden = settings: dogs; potency in % of the free acid; cited from earlier work
[1] = test system: durch ADP induzierten Blutplättchenaggregation; settings: rat plasma; in % of the effect of the free acid; cited from earlier work
Ratten = test: Mean arterial blood pressure in pentobarbital-anaesthetised rats, 10 min i.v. infusion as lipid emulsion; format: in vivo; settings: mean arterial pressure in % of baseline, mean of 4 rats
Experimental: So wurde an durch intraperitoneale Injektion von 60 mg/kg Natriumpentobarbital narkotisierten Ratten über einen Carotis-Katheter mit Hilfe eines Druckübermittlers der Blutdruck überwacht. Den Tieren (in Gruppen von je 4 Tieren) wurden dann für jeweils 10 Minuten über einen in die rechte vena femoralis eingesetzten Katheter • 1) 10,0 µg/kg/min der Verbindung A (R₁ = H) • 2) 9,6 µg/kg/min der Verbindung B (R₁ = H) • 3) 6,2 µg/kg/min des Esters der Formel I (X = 0) bzw. • 4) 10,5 µg/kg/min des Esters der Formel I (X = CH₂) injiziert, wobei diese Verbindungen in Form einer Lipidemulsion (vgl. Mizushima et al. J. Pharm. Pharmacol. 34 (1982) 49 - 50 und Ann. Rheum. Dis. 41 (1982) 263 - 267) zur Anwendung kamen. Dabei ergaben sich fol gende Werte des mittleren arteriellen Blutdrucks (in % des Ausgangswertes; jeweils als Mittelwert für die Tiere einer Gruppe): […]

[2] = test system: ADP-induzierten Thrombozytenaggregation; test: ADP-induced platelet aggregation (platelet count fall) in the urethane-anaesthetised rat after oral dosing; format: in vivo, Ratte; settings: 100 µg/kg ADP i.v. bolus
Experimental: Zur Bestimmung der ADP-induzierten Thrombozytenaggregation an der Urethan-narkotisierten Ratte nach oraler Gabe der Vergleichssubstanzen wurde den Tieren ein Carotis-Katheter eingesetzt und über diesen kontinuierlich Blut entnommen. Nach Zumischen von Natriumzitrat wurde in einem Technicon-Thrombocounter die Thrombozytenzahl bestimmt. 15 Minuten und unmittelbar vor der Gabe der Prüfsubstanz sowie 15, 30, 45 und 60 min. nach der Prüfsubstanzgabe wurden über die vena jugularis jeweils 100 µg/kg ADP als Bolus injiziert und der Thrombozytenabfall unter der ADP-Injektion bestimmt. Der Mittelwert der beiden Werte vor der Prüfsubstanzgabe wurde als Ausgangs-Kontrollwert genommen und die Werte nach Prüfsubstanzgabe als %-Änderung gegenüber diesem Wert bestimmt.

[3] = test system: menschlichen Blutplättchen; settings: aggregation induced by various agents; compared with natural Prostacyclin; cited from earlier work
[4] = 15 min after oral dose of 10 mg/kg
[5] = 30 min after oral dose of 10 mg/kg
[6] = 45 min after oral dose of 10 mg/kg
[7] = 60 min after oral dose of 10 mg/kg

SMILES: CCCCCC(O)/C=C/C1C(O)CC2CC(=CCCCC(=O)OC)CC21 (stereo not drawn) [Methylester der (5EZ,13E)(9α,11α,15α)-6,9-methano-11,15-dihydroxyprosta-5,13-diensäure]
- Wirkung auf den Blutdruck, relativ zur freien Säure (Hunden): 50 - 60%
- Hemmung der durch ADP induzierten Blutplättchenaggregation, Wirkung relativ zur freien Säure [1]: ~80%

SMILES: CC(C)(C)C(=O)OCOC(=O)c1cccc(/C=C2\C[C@H]3C[C@@H](O)[C@H](/C=C/[C@@H](O)C4CCCCC4)[C@H]3C2)c1 [I(X=CH₂), 3E-(m-Pivaloyloxymethyloxycarbonyl-benzyliden)-6β-(3′S-hydroxy-3′-cyclohexyl-1′E-propenyl)-7α hydroxy-cis-bicyclo[3.3.0]octan]
- Relativer Blutdruck (%) Minuten nach Injektionsbeginn (Ratten; 5 min, 10,5 µg/kg/min i.v. for 10 min): 62%
- Relativer Blutdruck (%) Minuten nach Injektionsbeginn (Ratten; 10 min, 10,5 µg/kg/min i.v. for 10 min): 51%
- Relativer Blutdruck (%) Minuten nach Injektionsbeginn (Ratten; 20 min, 10,5 µg/kg/min i.v. for 10 min): 69%
- Thrombozytenaggregationshemmung in % des Ausgangskontrollwertes nach Minuten [2, 4]: 24,0±3,0%
- Thrombozytenaggregationshemmung in % des Ausgangskontrollwertes nach Minuten ([2]; 15 min after oral dose of 100 mg/kg): 59,4±3,0%
- Thrombozytenaggregationshemmung in % des Ausgangskontrollwertes nach Minuten [2, 5]: 28,1±3,8%
- Thrombozytenaggregationshemmung in % des Ausgangskontrollwertes nach Minuten ([2]; 30 min after oral dose of 100 mg/kg): 63,3±6,8%
- Thrombozytenaggregationshemmung in % des Ausgangskontrollwertes nach Minuten [2, 6]: 29,1±3,9%
- Thrombozytenaggregationshemmung in % des Ausgangskontrollwertes nach Minuten ([2]; 45 min after oral dose of 100 mg/kg): 68,1±2,0%
- Thrombozytenaggregationshemmung in % des Ausgangskontrollwertes nach Minuten [2, 7]: 30,3±4,6%
- Thrombozytenaggregationshemmung in % des Ausgangskontrollwertes nach Minuten ([2]; 60 min after oral dose of 100 mg/kg): 71,0±4,4%

SMILES: O=C(O)c1cccc(/C=C2\C[C@H]3C[C@@H](O)[C@H](/C=C/[C@@H](O)C4CCCCC4)[C@H]3C2)c1 (relative stereo) [B(R₁=H), 3E-(m-Carboxybenzyliden)-6β-(3′S-hydroxy-3′-cyclohexyl-1′E-propenyl)-7α-hydroxy-cis-bicyclo-[3.3.0]octan, reference compound]
- Relativer Blutdruck (%) Minuten nach Injektionsbeginn (Ratten; 5 min, 9,6 µg/kg/min i.v. for 10 min): 80%
- Relativer Blutdruck (%) Minuten nach Injektionsbeginn (Ratten; 10 min, 9,6 µg/kg/min i.v. for 10 min): 84%
- Relativer Blutdruck (%) Minuten nach Injektionsbeginn (Ratten; 20 min, 9,6 µg/kg/min i.v. for 10 min): 105%
- Thrombozytenaggregationshemmung in % des Ausgangskontrollwertes nach Minuten [2, 4]: 68,9±6,8%
- Thrombozytenaggregationshemmung in % des Ausgangskontrollwertes nach Minuten [2, 5]: 55,1±6,7%
- Thrombozytenaggregationshemmung in % des Ausgangskontrollwertes nach Minuten [2, 6]: 51,8±6,4%
- Thrombozytenaggregationshemmung in % des Ausgangskontrollwertes nach Minuten [2, 7]: 38,1±6,3%

SMILES: O=C(O)c1cccc(/C=C2/C[C@@H]3[C@@H](/C=C/[C@@H](O)C4CCCCC4)[C@H](O)C[C@@H]3O2)c1 (relative stereo) [A (R₁ = H), 2-Oxa-3Z-(m-carboxybenzyliden)-6β-(3′-S-hydroxy-3′cyclohexyl-1′E-propenyl)-7α-hydroxy-cis-bicyclo[3.3.0] octan, reference compound]
- Relativer Blutdruck (%) Minuten nach Injektionsbeginn (Ratten; 5 min, 10,0 µg/kg/min i.v. for 10 min): 64%
- Relativer Blutdruck (%) Minuten nach Injektionsbeginn (Ratten; 10 min, 10,0 µg/kg/min i.v. for 10 min): 65%
- Relativer Blutdruck (%) Minuten nach Injektionsbeginn (Ratten; 20 min, 10,0 µg/kg/min i.v. for 10 min): 94%

SMILES: CC(C)(C)C(=O)OCOC(=O)c1cccc(/C=C2/C[C@@H]3[C@@H](/C=C/[C@@H](O)C4CCCCC4)[C@H](O)C[C@@H]3O2)c1 [I (X = 0), 2-Oxa-3Z-(m-pivaloyloxymethyloxycarbonyl-benzyliden)-6β-(3′S-hydroxy-3′-cyclohexyl-1′E-propenyl)-7α-hydroxy-cis-bicyclo[3.3.0]octan]
- Relativer Blutdruck (%) Minuten nach Injektionsbeginn (Ratten; 5 min, 6,2 µg/kg/min i.v. for 10 min): 58%
- Relativer Blutdruck (%) Minuten nach Injektionsbeginn (Ratten; 10 min, 6,2 µg/kg/min i.v. for 10 min): 62%
- Relativer Blutdruck (%) Minuten nach Injektionsbeginn (Ratten; 20 min, 6,2 µg/kg/min i.v. for 10 min): 81%

SMILES: CCCCCC(O)C#CC1C(O)CC2OC(=CCCCC(=O)OC)CC21 (stereo not drawn) [13,14-Dehydroprostacyclinmethylester]
- Aggregationshemmung von menschlichen Blutplättchen [3]: ähnlich wirksam
